From patent publication US6632455B2, “Molecular dispersion composition with enhanced bioavailability” (Schering Corporation, priority 1997, dated 2003)

Key:
abnormal growth of cells = settings: cited from earlier work
[1] = Bioavailability assay: single oral dose, plasma analysed by HPLC-UV, AUC compared with amorphous suspension control; assay type: in vivo, male cynomolgus monkeys; settings: for bioavailability (in words): observed while developing a solid dosage form with conventional excipients
Method: The formulation to be tested was administered orally to male cynomolgus monkeys in a single dose (PO, single). The number of monkeys for each test is indicated by the letter “N” followed by an equal sign and a number. Thus, “(N=6)” means the formulation was administered to six monkeys. The total amount of the compound of Formula I administered was 100 or 200 mg given as one capsule or tablet containing 100 or 200 mg each. The administered dose (tablet, capsule or control suspension) was slowly washed down with 10 mL of water. Blood samples were taken at 15, 30 minutes, 1 hour, 2 hours, 4 hours, 6 hours, 8 hours, 12 hours, 24 hours, and 48 hours in heparinized syringes. Plasma for analysis was obtained by centrifugation at 4° C. Plasma samples (one per time point) were split and stored at −20° C. until assayed as described below.
The monkeys to be tested were fed two biscuits in the morning on the day of drug administration.
Monkeys that were fasted were not given any food overnight before drug administration and were fed normally after the 4-hour time point after drug administration.
Samples of monkey plasma were collected at selected time intervals. The plasma was analyzed by a high pressure liquid chromatograph (HPLC) procedure with ultraviolet detection. AUC (area under the plasma concentration-time curve, […]) values were calculated using standard procedures to determine the relative bioavailability of the compound in the tested formulations. The larger the AUC value, the greater the bioavailability.
A suspension of the compound of Formula I was used as a control. The control was made by suspending sufficient compound of Formula I in methyl cellulose solution to provide a dose of 30 mg/kg of body weight of monkey. The 0.4% methyl cellulose solution was made by adding 4 grams of methyl cellulose to one liter of distilled water and heating at about 80° C. with stirring for about 1½ hours.
The results of the bioavailability assay are given in terms of percent-relative bioavailability (AUC ratio) compared to amorphous suspension of Compound I in 0.4 methyl cellulose solution.

[2] = target: farnesyl protein transferase (Homo sapiens, UniProt P49356); settings: cited from earlier work
[3] = fed monkeys, suspension of crystalline form vs suspension of amorphous form
[4] = suspension of crystalline form vs suspension of amorphous form, feeding state not printed in the sentence (fasted implied by b145)

relative bioavailability, % of the AUC of the amorphous suspension [1, 3]: 3.6%
relative bioavailability, % of the C max of the amorphous suspension [1, 3]: 5.2%
bioavailability (in words) ([1]; listed as compound of Formula I): extremely poor
bioavailability (in words) ([1]; listed as crystalline Compound I): very poor
relative bioavailability, % of the AUC of the amorphous suspension [1, 4]: 1.3%
relative bioavailability, % of the Cmax of the amorphous suspension [1, 4]: 2.7%
SMILES: NC(=O)N1CCC(CC(=O)N2CCC(C3c4ncc(Br)cc4CCc4cc(Cl)cc(Br)c43)CC2)CC1 (single isomer, unassigned; (+)) [Compound I, (+)-4-[4-(8-chloro-3,10-dibromo-6,11-dihydro-5H-benzo [5,6cyclohepta[1,2-b]pyridin-11-yl)-1-piperidinyl]-2-oxoethyl]-1-piperidinecarboxamide]
activity for inhibiting the abnormal growth of cells (in words) (abnormal growth of cells): potent activity
activity for inhibiting farnesyl protein transferase (in words) [2]: potent activity
